Data published in US6747029B2, “Dopamine D4 receptor antagonists as treatment for attention deficit-hyperactivity disorder” (priority 2001, dated 2004).

Key:
6-OHDA-lesioned rats = assay: Locomotor activity of juvenile rats with neonatal 6-OHDA lesions (ADHD model); format: in vivo, Sprague-Dawley rat; conditions: for hyperactivity in lesioned rats with psychostimulants: daytime 10:00-16:00 h, dose not given; for effect on lesion-induced hyperactivity (dose dependence): i.p., low and high dosage; for effect on lesion-induced hyperactivity (dose dependence) / motor activity in lesioned rats: daytime
Source text: For example, behavioral studies of juvenile rats with neonatal 6-hydroxydopamine (6-OHDA) lesions, as is described below, can be used to screen drugs in order to identify candidate drugs for use in the method of the invention. […] As a result, juvenile rats with neonatal 6-OHDA lesions are accepted as a laboratory model for ADHD.
On postnatal day (PD) 5, male Sprague-Dawley rat pups randomly received intracisternal injections of vehicle (“sham-lesioned”) (0.9% NaCl containing 0.1% ascorbic acid) or 6-OHDA hydrobromide (“lesioned”) (100 μg free base) into the brain under hypothermal anesthesia at 45 min after pretreatment with desipramine hydrochloride (20 mg/kg free base) injected subcutaneously (s.c.).
Behavioral effects of neonatal lesions were examined by monitoring locomotor activity at PD 21-30 in a novel environment to provoke exploratory activity. Rats were maintained under a 12-h artificial daylight/dark schedule (on, 07:00-19:00 h), with free access to tap-water and standard rat chow. Motor activity was automatically monitored for 90 min between PD 21 and 30, with a computer-controlled photobeam activity monitoring system (San Diego Instruments, San Diego, Calif.). […] […] Sessions were separated by 48 hours. […] Breaking of consecutive photobeams was scored as locomotion.

sham-lesioned rats = assay: Locomotor activity of sham-lesioned control rats; format: in vivo, Sprague-Dawley rat; conditions: daytime 10:00-16:00 h
Experimental: (§1) On postnatal day (PD) 5, male Sprague-Dawley rat pups randomly received intracisternal injections of vehicle (“sham-lesioned”) (0.9% NaCl containing 0.1% ascorbic acid) or 6-OHDA hydrobromide (“lesioned”) (100 μg free base) into the brain under hypothermal anesthesia at 45 min after pretreatment with desipramine hydrochloride (20 mg/kg free base) injected subcutaneously (s.c.). Lesions of DA in forebrain tissue sections were verified by quantifying DA transporter binding with [^3H]GBR-12935 (1-[2-(diphenylmethoxy)ethyl]-4-(3-phenylpropyl)piperazine) by computed autoradiography at the completion of experiments as an indication of loss of DA nerve terminals in forebrain.
Behavioral effects of neonatal lesions were examined by monitoring locomotor activity at PD 21-30 in a novel environment to provoke exploratory activity. Rats were maintained under a 12-h artificial daylight/dark schedule (on, 07:00-19:00 h), with free access to tap-water and standard rat chow. Motor activity was automatically monitored for 90 min between PD 21 and 30, with a computer-controlled photobeam activity monitoring system (San Diego Instruments, San Diego, Calif.). […] Breaking of consecutive photobeams was scored as locomotion.

D4 receptors [1] = assay: Autoradiography of D4 receptor binding in forebrain after neonatal lesion; format: in vivo, rat
Experimental: as §1
(§2) Rats were sacrificed 2 days after the last behavioral testing for autoradiographic analysis of DA receptor density. Frozen coronal brain sections (10 μm) were prepared in a cryostat at −17° C., thaw-mounted on gelatin-coated microscopic slides and stored at −80° C. until quantitative autoradiographic assays. D2-like receptor binding was assayed with 1 nM [^3H]nemonapride in the presence of 0.5 μM 1,3-ditolylguanidine and 0.1 μM pindolol to block 5-HT1A sites in the brain tissue. Nonspecific binding was determined with 10 μM […]. […] Nonspecific binding was determined with 1 μM cis-flupenthixol.

D2-like receptors = assay: Autoradiography of D2-like receptor binding in forebrain after neonatal lesion; format: in vivo, rat
Experimental: as §1, §2

D4 receptors [2] = molecular target: T1, D4 receptors (Homo sapiens, UniProt P21917); conditions: cited from earlier work
T1 sequence (P21917 1-419): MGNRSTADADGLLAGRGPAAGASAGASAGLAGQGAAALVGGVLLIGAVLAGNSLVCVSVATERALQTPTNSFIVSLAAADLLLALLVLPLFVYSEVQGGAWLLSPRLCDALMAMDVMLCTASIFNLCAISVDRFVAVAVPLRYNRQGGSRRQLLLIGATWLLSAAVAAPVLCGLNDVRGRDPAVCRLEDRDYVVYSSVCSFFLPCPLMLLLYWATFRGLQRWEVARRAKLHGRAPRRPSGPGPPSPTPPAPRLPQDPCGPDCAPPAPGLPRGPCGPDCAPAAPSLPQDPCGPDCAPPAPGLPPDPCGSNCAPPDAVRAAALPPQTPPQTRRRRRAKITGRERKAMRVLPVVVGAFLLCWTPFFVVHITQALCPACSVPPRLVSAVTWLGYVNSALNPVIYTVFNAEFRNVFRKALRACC

[3] = test system: non-dopaminergic receptors; conditions: except 5-HT1A and 5-HT2A; cited from earlier work

For COC(=O)C(c1ccccc1)C1CCCCN1 (racemic) [(±)-methylphenidate], the “hyperactivity in lesioned rats with psychostimulants” value (6-OHDA-lesioned rats) was “reduced” and the “motor activity in sham-lesioned controls” value (sham-lesioned rats) was “greatly increased motor activity”.
For CC(N)Cc1ccccc1 (single isomer, unassigned; (+)) [(+)-amphetamine], the “hyperactivity in lesioned rats with psychostimulants” value (6-OHDA-lesioned rats) was “reduced” and the “motor activity in sham-lesioned controls” value (sham-lesioned rats) was “greatly increased motor activity”.
For NCCc1cc(O)c(O)cc1O [6-OHDA, 6-hydroxydopamine], the “increase of D4 receptor binding versus sham” value (D4 receptors [1]; lateral CPu) was 40.3%, the “increase of D4 receptor binding versus sham” value (D4 receptors [1]; medial CPu) was 35.2% and the “increase of D2-like receptors versus sham” value (D2-like receptors; lateral CPu) was 16.6%. The “increase of D2-like receptors versus sham” value (D2-like receptors; medial CPu) was 18.3%.
In the case of Fc1ccc2[nH]c(CN3CCN(c4ccccn4)CC3)cc2c1 [CP-226,269], the “effect on lesion-induced hyperactivity (dose dependence)” value (6-OHDA-lesioned rats) was “dose-dependent exacerbation”.
For Fc1ccc(OCC2CCC3CN(c4ncc(F)cn4)CCN3C2)cc1 (stereo not drawn) [CP-293,019, 7R,S-(4-fluoro-phenoxymethyl)-2-(5-fluoro-pyrimidin-2-yl)-octahydropyrido[1,2-α]pyrazine], the “potency at D4 receptors relative to D2 or other DA receptors” value (D4 receptors [2]) is listed as “more than 1000 times”, the “selectivity and kind of action at D4 receptors” value (D4 receptors [2]) is listed as “highly D4 receptor-selective, full antagonist” and the “motor activity in lesioned rats” value (6-OHDA-lesioned rats; 30 mg/kg i.p., 90 min session) is listed as “indistinguishable from sham-lesioned controls”. The “nocturnal hyperactivity in lesioned rats” value (6-OHDA-lesioned rats; 30 mg/kg, nocturnal 22:00-04:00 h) was “completely reversed”, the inhibition at 10 mg/kg (6-OHDA-lesioned rats; Rattus norvegicus, ip, read-out: inhibition of motor activity in lesioned rats) was about 40% and the “effect on lesion-induced hyperactivity (dose dependence)” value (6-OHDA-lesioned rats) was “dose-dependent mitigation”. The “affinity for non-dopaminergic receptors” value [3] was “negligible affinity”.
In the case of Clc1ccc(N2CCN(Cc3c[nH]c4ncccc34)CC2)cc1 [L-745,870, 3-{[4-(4-chlorophenyl)piperazin-1-yl]methyl}-1H-pyrrolo[2,3-b]pyridine], the “selectivity and kind of action at D4 receptors” value (D4 receptors [2]) is given as “highly selective fill antagonist” and the “motor activity in lesioned rats” value (6-OHDA-lesioned rats; 15 mg/kg i.p.) is given as “reversed to a level similar to that found in control rats”.
In the case of CC[C@@H](CO)NC(=O)[C@@H]1C=C2c3cccc4c3c(cn4C)C[C@H]2N(C)C1 [methysergide], the “effect of methysergide alone on lesion-induced hyperactivity” value (6-OHDA-lesioned rats; 2 mg/kg i.p., 30 min prior to testing) was “failed to affect” and the “effect of methysergide pretreatment on motor responses to subsequent CP-293,019” value (6-OHDA-lesioned rats; methysergide 2 mg/kg i.p. 30 min before CP-293,019 30 mg/kg) was “did not affect”.
